This is an account of results in patent US9827228B2, “Opioid receptor modulators and use thereof” (priority 2015, dated 2017).

In one experiment the test system is B6 mice. Description: Tail-flick test. It counts as in vivo. As to conditions: for AUC of inhibition of the tail-flick response: 0-180 min. The procedure:
Male wild-type B6 mice (25-30 g) were kept in a temperature-controlled animal room with a 12-h light/dark cycle. The protocol was approved by the Institutional Animal Care and Use Committee of the National Health Research Institutes, Taiwan. Animal experiments were carried out in accordance with the Policies on the Use of Animals in Neuroscience Research and the ethical guidelines for investigations of experimental pain in conscious animals, International Association for the Study of Pain.
Tail-Flick Analgesia Meter (Columbia Instruments, Trussville, Ala., USA) was used to measure the tail-flick latencies of mice. The cut-off time for each measurement was 10 s to avoid tissue damage. Basal latencies (in seconds) were recorded before treatment and test latencies (also in seconds) were recorded at 30, 60, 90, 120, and 180 minutes after an intravenous injection of compounds. Time-response curves from compounds at various concentrations were obtained for anti-nociceptive effects occurring between 0 and 180 minutes. The AUC values corresponding to the various concentrations were also calculated. The anti-nociceptive effects were quantitatively calculated by substracting the basal latency from the test latency. An ED50 value was determined by an up-and-down method reported in Crocker et al., Pharmacol Biochem Behav, 1984, 21, 133-136.
To investigate whether AAMs could change the innate character of MOR to be activated by naloxone in vivo, tail-flick tests after acute treatment were performed. […] Unexpectedly, in mice injected only with the vehicle not containing naloxone, no anti-nociception effect was observed even with the highest dose of Compound 1 at 100 mg/kg. These in vivo results again indicate that Compound 1 served as an AAM of the MOR.
On the technique in general: Hot-plate and tail-flick tests time the reaction to a heat stimulus.

The target in a further experiment is T1, hMOR (Homo sapiens, UniProt P35372).
T1 construct: host or cells: CHO-K1
Description: cell-based. As to conditions: for AUC: AUC of [Ca2+]i fluorescence. The experiment is classed as cell-based. The procedure:
Chinese hamster ovary (CHO)-K1 cells expressing hMOR and Gα15 (CHO-K1/MOR/Gα15) were cultured in F12 medium (GIBCO) supplemented with 10 μg/mL Hygromycin B (Invivogen), 20 μg/mL Zeocin (Invivogen) and P/S/F (100 units/mL penicillin, 100 μg/mL streptomycin, 10% fetal bovine serum). The cultures were incubated at 37° C. in a humidified 5% CO2 incubator.
One day prior to running the assay, CORNING® black 96-well assay plates having a clear flat bottom were coated with a 0.1 mg/mL Poly-L-Lysine solution. CHO-K1/MOR/Gα15 cells were suspended in F12 medium and plated at a density of about 8×10^4 cells/well in 200 μL medium. Cells were incubated under a humidified atmosphere of 10% CO2 at 37° C. overnight to reach an 80-90% confluent cell monolayer before the assay. On the day of the assay, 150 μL medium was removed from each well of the plates. To each well were added FLIPR® calcium assay reagents (Molecular Devices Corporation, Sunnyvale, Calif., USA; 50 μL) dissolved in 1× assay buffer (HBSS: KCl 5 mM, KH2PO4 0.3 mM, NaCl 138 mM, NaHCO3 4 mM, Na2HPO4 0.3 mM, d-glucose 5.6 mM, with additional 20 mM HEPES and […], pH 7.4) and 2.5 mM probenecid. After incubation at 37° C. for 1 hour, a test compound, alone or together with naloxone (a MOR antagonist), was also added to each well. Using a FlexStationlll instrument (Molecular Devices Corp.), increments of the [Ca^2+]i fluorescence after robotic injection of the cell suspension were monitored at 1.52 s intervals using the excitation wavelength of 485 nm and the emission wavelength of 525 nm. The [Ca^2+]i fluorescence was measured up to 90 s after the injection. The fluorescence intensity from 6 to 12 wells of cells were averaged and the relative amount of [Ca^2+]i release was determined by integrating the AUC of the [Ca^2+]i fluorescence averages.
A CHO-K1 cell line expressing MOR and Gα15 (GenScript) was used to set up a sensitive high-throughput screen (HTS) system. […] The HTS was performed in the absence or presence of naloxone (an opioid antagonist; 20 nM), to identify AAMs.

The mark [1] stands for this setting: combined with naloxone, CHO-K1/MOR/Gα15 cells.
The mark [2] stands for this setting: EC50, combined with naloxone, CHO-K1/MOR/Gα15 cells.
[3] abbreviates: combined with naloxone, CHO-K1/MOR/Gα15 cells, read-out: EC50.

Where two headings read alike, the source gives them in different places.

T1 sequence (P35372 whole entry): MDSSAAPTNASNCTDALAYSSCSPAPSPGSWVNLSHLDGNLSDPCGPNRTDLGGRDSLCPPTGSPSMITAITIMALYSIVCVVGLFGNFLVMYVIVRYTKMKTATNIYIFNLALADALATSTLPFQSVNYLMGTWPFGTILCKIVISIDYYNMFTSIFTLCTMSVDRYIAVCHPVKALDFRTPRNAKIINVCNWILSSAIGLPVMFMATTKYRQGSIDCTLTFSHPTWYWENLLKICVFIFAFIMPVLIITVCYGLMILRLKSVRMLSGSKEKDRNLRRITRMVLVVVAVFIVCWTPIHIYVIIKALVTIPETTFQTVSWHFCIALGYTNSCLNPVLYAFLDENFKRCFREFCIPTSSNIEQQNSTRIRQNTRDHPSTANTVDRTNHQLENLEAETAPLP

Consider `C=CCN1CC[C@]23c4c5ccc(O)c4O[C@H]2C(=O)CC[C@@]3(O)[C@H]1C5` [naloxone, reference compound], for which the ED50 (as a rule, the midpoint of the dose-response relation) in the experiment on B6 mice (Mus musculus, mice injected with Compound 1 at 100 mg/kg, read-out: ED50 in inhibiting the tail-flick response) was determined as 17.5 ± 4 mg/kg.
Regarding `CCc1ccccc1Nc1nc(-c2sc(C)nc2C)cs1` [Compound 1, N-(2-Ethylphenyl)-2′,4′-dimethyl-4,5′-bi-1,3-thiazol-2-amine], at hMOR (setting [1]), the AUC entry is reported as “+ (+: >5000)”. In addition, the EC50 – broadly, the concentration needed to bring the measured effect to its halfway point – on hMOR (EC50, combined with naloxone) is below 10 µM; on hMOR (EC50, combined with naloxone (20 nM)) it was 4 µM; on hMOR (setting [2]), 3 to 10 µM. Moreover, the “effect on Emax and potency of naloxone” value on hMOR (concentration-response curves of naloxone at several concentrations of Compound 1) was “both Emax and potency of naloxone were altered”. Besides, the calcium release result on hMOR (in the presence of naloxone) was “significant calcium release”. Besides, the “PAM or NAM effect: Emax and potency of morphine” value on hMOR (morphine with Compound 1 at 30, 10, or 3.3 μM) is recorded as “neither Emax nor potency of morphine was significantly altered”. Besides, the anti-nociceptive effect result with B6 mice (Compound 1 alone at 25, 50, or 100 mg/kg (i.v.), B6 mice) is “did not produce any anti-nociceptive effect”. Further, the “AUC of inhibition of the tail-flick response” value with B6 mice (Compound 1 at 25 mg/kg (i.v.) with naloxone at 10 mg/kg) turned out to be 114.8±26 min×s; in the experiment on B6 mice (Compound 1 at 50 mg/kg (i.v.) with naloxone at 10 mg/kg), 159.8±60 min×s; with B6 mice (Compound 1 at 100 mg/kg (i.v.) with naloxone at 10 mg/kg) it was 384±87 min×s.
Take `Cc1nc(C)c(-c2csc(Nc3ccc(N(C)C)cc3C)n2)s1` [Compound 75, N^1-(2′,4′-Dimethyl-4,5′-bi-1,3-thiazol-2-yl)-N^4,N^4,2-trimethyl-1,4-benzenediamine]: on hMOR (setting [1]), the AUC entry is reported as “− (−: <5000)”. For the same molecule, the EC50 at hMOR (setting [3]) is above 10 µM.
For `CCc1ccccc1Nc1nc2c(s1)Cc1ccccc1-2` [Compound 127, N-(2-Ethylphenyl)-8H-indeno[1,2-d][1,3]thiazol-2-amine], the AUC result at hMOR (setting [1]) is recorded as “− (−: <5000)”. On hMOR (setting [3]), the concentration giving a half-maximal response (EC50) is above 10 µM.
On the same counts, the results for `Cc1cc(C)cc(Nc2nc(-c3sc(C)nc3C)cs2)c1` [Compound 39, N-(3,5-Dimethylphenyl)-2′,4′-dimethyl-4,5′-bi-1,3-thiazol-2-amine] are “− (−: <5000)” and above 10 µM.
For the molecule `Cc1nc(C)c(-c2csc(Nc3ccccc3Oc3ccccc3)n2)s1` [Compound 6, N-(2-Phenoxyphenyl)-2′,4′-dimethyl-4,5′-bi-1,3-thiazol-2-amine], at hMOR (setting [1]), the AUC result is recorded as “− (−: <5000)”. Also, the EC50 on hMOR (setting [3]) is above 10 µM.
`Cc1nc(C)c(-c2csc(Nc3ccccc3Cl)n2)s1` [Compound 8, N-(2-Chlorophenyl)-2′,4′-dimethyl-4,5′-bi-1,3-thiazol-2-amine]: on hMOR (setting [1]), the AUC entry is “− (−: <5000)”. Moreover, the half-maximal effective concentration (EC50) on hMOR (setting [3]) is above 10 µM.
Turning to `Cc1ccc(C)c(Nc2nc(-c3sc(C)nc3C)cs2)c1` [Compound 25, N-(2,5-Dimethylphenyl)-2′,4′-dimethyl-4,5′-bi-1,3-thiazol-2-amine], the AUC result at hMOR (setting [1]) was “− (−: <5000)”. In addition, the EC50 on hMOR (setting [3]) is above 10 µM.
As to `CCc1cc(Br)ccc1Nc1nc(-c2sc(C)nc2C)cs1` [Compound 49, N-(4-Bromo-2-ethylphenyl)-2′,4′-dimethyl-4,5′-bi-1,3-thiazol-2-amine], the AUC entry on hMOR (setting [1]) is “− (−: <5000)”. Moreover, the concentration giving a half-maximal response (EC50) was below 10 µM on hMOR (EC50, combined with naloxone) and 3 to 10 µM on hMOR (setting [2]).
On to `Cc1ccc(Nc2nc(-c3oc(C)nc3C)cs2)c(C)c1` [Compound 105, 4-(2,4-Dimethyl-1,3-oxazol-5-yl)-N-(2,4-dimethylphenyl)-1,3-thiazol-2-amine], for which the AUC result on hMOR (setting [1]) is recorded as “+ (+: >5000)”. Moreover, at hMOR (setting [3]), the EC50 was above 10 µM.
Consider `Cc1nc(C)c(-c2csc(Nc3cc(Br)ccc3C)n2)s1` [Compound 19, N-(5-Bromo-2-methylphenyl)-2′,4′-dimethyl-4,5′-bi-1,3-thiazol-2-amine], for which, at hMOR (setting [1]), the AUC result was “− (−: <5000)”. Further, the EC50 on hMOR (setting [3]) was above 10 µM.
For the molecule `Cc1nc(C)c(-c2csc(Nc3ccc(F)cc3C)n2)s1` [Compound 31, N-(4-Fluoro-2-methylphenyl)-2′,4′-dimethyl-4,5′-bi-1,3-thiazol-2-amine], at hMOR (setting [1]), the AUC entry is given as “− (−: <5000)”. In addition, at hMOR (setting [3]), the EC50 is above 10 µM.
In the same order, the values of `COc1ccc(C)c(Nc2nc(-c3sc(C)nc3C)cs2)c1` [Compound 12, N-(5-Methoxy-2-methylphenyl)-2′,4′-dimethyl-4,5′-bi-1,3-thiazol-2-amine] are “− (−: <5000)” and above 10 µM.
